Source: patent US12510533B2, “Methods for treating multiple myeloma and the use of companion biomarkers for 4-(4-(4-(((2-(2,6-dioxopiperidin-3-yl)-1-oxoisoindolin-4-yl)oxy)methyl)benzyl)piperazin-1-yl)-3-fluorobenzonitrile” (Celgene Corporation, priority 2018, dated 2025)

How the values were obtained:
[1] = system: tumor necrosis factor alpha (TNF-α); experiment: TNF-α production by TCR-activated healthy PBMCs; format: cell-based, human; conditions: 24 hours
Description: FIG. 21A-FIG. 21C illustrate that Compound 2 is a potent inducer of effector cytokines. […] (FIG. 21A) IL-2, (FIG. 21B) IFN-γ, and (FIG. 21C) TNF-α. Data shown are an average from three or four donors and are represented as fold change over DMSO control; error bars represent standard error of the mean (SEM).
The immunomodulatory activity of Compound 2 on T cell receptor (TCR)-activated healthy PBMCs was assessed. […] This increased in cytokine secretion was evident as early as 24 hours after introduction of Compound 2 with the peak of the effector cytokine production induced by Compound 2 being 5.5-fold for IL-2, 4.5-fold for interferon gamma (IFN-γ), and 2-fold for tumor necrosis factor alpha (TNF-α) above the vehicle control (FIG. 21A-FIG. 21C, respectively).

[2] = system: sFLC; experiment: Phase 1 study, serum free light chain (sFLC); format: in vivo, human; conditions: two subjects; during the first cycle of treatment
Description: This is an open-label, multi-center, international, Phase 1 study to assess the safety, PK/PD and preliminary efficacy of Compound 2 in combination with dexamethasone in subjects with RRMM.
Serum samples were taken before and during Compound 2 treatment at specified time points. Serum free light chain (sFLC) can be used as an efficacy measurement in multiple myeloma. The short half-life of sFLC provides an opportunity to follow the dynamic effect of compound treatment on disease burden. […] The extent of decrease from baseline and duration of the effect may predict response to treatment with Compound 2.

[3] = target: T1, Aiolos (Homo sapiens, UniProt Q96SW2+Q9UKT9); experiment: Phase 1 study, Aiolos expression by flow cytometry in CD3+ T cells; format: in vivo; conditions: QD days 1-10, 15-24/28 and BID days 1-3, 15-17/28; recovered during dosing interruptions
T1 construct: expressed in transfected cells; host or cells: DF15 multiple myeloma cells
T1 sequence (Q9UKT9 whole entry): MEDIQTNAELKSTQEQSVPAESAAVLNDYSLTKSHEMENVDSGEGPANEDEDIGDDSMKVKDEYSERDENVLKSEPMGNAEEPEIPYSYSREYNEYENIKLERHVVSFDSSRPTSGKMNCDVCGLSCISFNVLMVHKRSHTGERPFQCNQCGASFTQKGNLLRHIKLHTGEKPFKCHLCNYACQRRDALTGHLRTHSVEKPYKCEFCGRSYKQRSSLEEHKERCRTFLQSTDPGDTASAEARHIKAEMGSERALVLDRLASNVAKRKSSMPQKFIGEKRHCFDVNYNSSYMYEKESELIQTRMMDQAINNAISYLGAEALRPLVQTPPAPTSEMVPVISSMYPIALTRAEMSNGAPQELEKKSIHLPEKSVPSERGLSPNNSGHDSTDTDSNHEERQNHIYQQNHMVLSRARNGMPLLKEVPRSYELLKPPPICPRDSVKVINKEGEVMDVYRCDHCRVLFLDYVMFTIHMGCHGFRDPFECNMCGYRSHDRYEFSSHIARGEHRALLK
T1 sequence (Q96SW2 whole entry): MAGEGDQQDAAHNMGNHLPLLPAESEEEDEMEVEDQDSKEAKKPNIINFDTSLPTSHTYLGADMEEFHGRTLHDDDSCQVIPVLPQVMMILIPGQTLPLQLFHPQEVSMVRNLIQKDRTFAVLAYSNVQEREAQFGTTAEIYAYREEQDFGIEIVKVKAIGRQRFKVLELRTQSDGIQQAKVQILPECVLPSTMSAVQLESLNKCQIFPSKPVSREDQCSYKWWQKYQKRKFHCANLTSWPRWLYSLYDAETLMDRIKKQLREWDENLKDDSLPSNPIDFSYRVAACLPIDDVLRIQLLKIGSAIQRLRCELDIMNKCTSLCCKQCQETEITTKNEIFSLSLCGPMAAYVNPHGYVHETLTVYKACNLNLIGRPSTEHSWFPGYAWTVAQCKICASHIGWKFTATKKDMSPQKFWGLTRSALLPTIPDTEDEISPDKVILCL
T1 sequence (Q16531 2-1140, further chain): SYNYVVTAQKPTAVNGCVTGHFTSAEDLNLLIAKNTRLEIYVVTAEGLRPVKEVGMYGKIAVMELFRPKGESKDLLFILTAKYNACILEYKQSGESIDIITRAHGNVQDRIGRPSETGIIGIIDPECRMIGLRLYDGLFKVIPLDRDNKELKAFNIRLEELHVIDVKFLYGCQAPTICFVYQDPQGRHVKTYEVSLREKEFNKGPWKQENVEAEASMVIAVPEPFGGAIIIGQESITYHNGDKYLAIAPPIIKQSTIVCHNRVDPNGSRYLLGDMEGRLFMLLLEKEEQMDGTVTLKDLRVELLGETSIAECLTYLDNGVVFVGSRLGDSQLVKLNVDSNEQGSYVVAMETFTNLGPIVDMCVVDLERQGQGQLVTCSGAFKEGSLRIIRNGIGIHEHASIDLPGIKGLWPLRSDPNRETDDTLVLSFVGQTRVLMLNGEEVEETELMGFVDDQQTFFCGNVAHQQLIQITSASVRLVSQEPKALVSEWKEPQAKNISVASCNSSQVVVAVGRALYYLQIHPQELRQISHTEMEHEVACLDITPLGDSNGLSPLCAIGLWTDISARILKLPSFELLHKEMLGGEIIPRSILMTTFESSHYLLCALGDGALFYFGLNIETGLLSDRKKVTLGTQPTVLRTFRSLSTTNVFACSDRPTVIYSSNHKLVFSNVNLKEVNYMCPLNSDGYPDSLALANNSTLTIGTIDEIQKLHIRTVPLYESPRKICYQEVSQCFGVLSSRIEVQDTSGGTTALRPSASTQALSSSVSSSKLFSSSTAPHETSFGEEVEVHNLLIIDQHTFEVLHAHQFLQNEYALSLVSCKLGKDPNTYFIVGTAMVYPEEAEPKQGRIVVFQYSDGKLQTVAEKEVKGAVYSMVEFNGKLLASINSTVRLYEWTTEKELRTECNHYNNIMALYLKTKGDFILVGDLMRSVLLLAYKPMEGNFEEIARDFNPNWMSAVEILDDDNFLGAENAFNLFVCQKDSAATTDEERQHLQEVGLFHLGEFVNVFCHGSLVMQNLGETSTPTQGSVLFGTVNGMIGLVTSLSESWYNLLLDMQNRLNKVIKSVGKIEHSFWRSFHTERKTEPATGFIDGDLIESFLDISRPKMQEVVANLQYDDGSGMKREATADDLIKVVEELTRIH
Description: FIG. 24A and FIG. 24B illustrate that Compound 2 induces Aiolos degradation in CD3+ T cells from peripheral blood of relapsed/refractory multiple myeloma patients after (FIG. 24A) the once daily (QD) 1-10, 15-24/28 schedule, or (FIG. 24B) the twice daily (BID) 1-3, 15-17/28 schedule.
Aiolos expression was measured by flow cytometry in CD3+ T cells before and during Compound 2 treatment in two different dosing schedules (QD administration on days 1 to 10 and days 15 to 24 of a 28 day cycle, and BID administration on days 1 to 3 and days 15 to 17 of a 28 day cycle).

[4] = target: Ikaros (Homo sapiens, UniProt Q13422+Q96SW2); experiment: Ikaros degradation in CD8+ T cells; format: cell-based; set-up: The effects of Compound 2 on the degradation of Ikaros in CD4+ and CD8+ T cells; endogenous in cells; host or cells: CD4+ and CD8+ T cells of healthy donors; CD34+ bone marrow cells of healthy donors; CD3+ T cells of multiple myeloma patients; conditions: 24 hours (data not shown), read-out: Ikaros degradation IC50
Sequence of Ikaros (Q13422 whole entry): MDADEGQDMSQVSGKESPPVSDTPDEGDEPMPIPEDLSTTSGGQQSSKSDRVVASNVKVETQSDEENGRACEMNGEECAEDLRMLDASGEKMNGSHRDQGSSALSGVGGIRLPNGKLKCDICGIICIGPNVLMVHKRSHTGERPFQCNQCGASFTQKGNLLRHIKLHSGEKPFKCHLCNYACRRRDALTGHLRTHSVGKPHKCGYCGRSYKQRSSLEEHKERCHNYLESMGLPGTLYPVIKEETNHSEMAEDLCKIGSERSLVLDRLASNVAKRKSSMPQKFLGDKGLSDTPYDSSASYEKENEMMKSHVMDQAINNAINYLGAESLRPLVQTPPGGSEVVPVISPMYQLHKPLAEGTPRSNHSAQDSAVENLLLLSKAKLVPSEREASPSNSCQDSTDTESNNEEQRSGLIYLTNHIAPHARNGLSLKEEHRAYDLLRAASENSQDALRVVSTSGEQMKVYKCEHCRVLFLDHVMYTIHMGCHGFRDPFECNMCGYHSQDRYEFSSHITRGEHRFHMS
Sequence of Ikaros (Q16531 2-1140, further chain): as the sequence (Q16531 2-1140, further chain) above
Sequence of Ikaros (Q96SW2 whole entry): as the sequence (Q96SW2 whole entry) above
Description: The effects of Compound 2 on the degradation of Ikaros in CD4+ and CD8+ T cells over a 72 hour time course were investigated. The ability of Compound 2 to induce effector cytokine release correlated with degradation of Ikaros in CD4+ T cells, a known transcriptional repressor of IL-2 (FIG. 22A-FIG. 22C). […] The ability of Compound 2 to degrade Ikaros was also observed at the 48 and 72 hour time point in both CD4+(FIG. 22B and FIG. 22C) and CD8+ (data not shown) T cell populations. […] Thus, Ikaros and Aiolos can serve as biomarkers of T-cell activation.

N#Cc1ccc(N2CCN(Cc3ccc(COc4cccc5c4CN([C@H]4CCC(=O)NC4=O)C5=O)cc3)CC2)c(F)c1 [Compound 2, (S)-4-(4-(4-(((2-(2,6-dioxopiperidin-3-yl)-1-oxoisoindolin-4-yl)oxy)methyl)benzyl)piperazin-1-yl)-3-fluorobenzonitrile]
peak TNF-α production above the vehicle control [1]: 2 fold | decrease in sFLC [2]: > 80% | Aiolos degradation in CD3+ T cells [3]: dose dependent | DC50 [4]: 0.5 nM
